# Reference: patent US10189843B2, “Fused pyrazole derivative having autotaxin inhibitory activity” (The University of Tokyo, priority 2014, dated 2019)
# pIC50: −log10 of the molar value.
# Target: T1, Human autotaxin enzyme (Homo sapiens, UniProt Q13822)
# T1 construct: purchased R&D System
# Assay: Evaluation of autotaxin inhibitor, Method C (18:0 Lyso PC substrate, choline assay, Resorufin fluorescence)
# Assay type: biochemical
# Settings: Method C (Test Example 3), read-out: Inhibitory activity (enzyme inhibitory activity, IC50)
# Experimental: Test Example 3 (Method C) Evaluation of Autotaxin Inhibitor
# Solution B containing 100 mM Tris-HCl buffer (pH7.5), 150 mM NaCl, 5 mM MgCl2, and 0.05% Triton X-100 was prepared. Human autotaxin enzyme (purchased from R&D System) was diluted with Solution B, and 2.5 μl of which was added to a solution of test compound in DMSO. Furthermore, 2.5 μl of 200 μM 18:0 Lyso PC (purchased from Avanti Polar Lipids) in Solution B was added and allowed to react at room temperature for 2 hours. After completion of the reaction, 15 μl of the coline assay reagent (100 mM Tris-HCl buffer (pH7.5), 5 mM MgCl2, 77 μg/ml coline oxidase, 10 μg/ml peroxydase, 25 μM 10-acetyl-3,7-dihydroxyphenoxazine, and excess autotaxin inhibitor) was added and allowed to react at room temperature for 20 minutes. The fluorescent dye Resorufin, which was produced by the reaction, was detected. The fluorescence was detected using ViewLux (PerkinElmer, Inc.) with a excitation wavelength of 531 nm and a fluorescence wavelength of 598 nm.
# The percent inhibition of the test compound was calculated by assuming the sample with no test compound as 0% inhibition and the sample with no enzyme as 100% inhibition, and the percent inhibitions at different concentrations of the test compound were plotted to obtain a concentration-dependent curve.
row,pIC50,SMILES
1,≤ 6.00,CCCCCC1CN(Cc2cc(C(C)=O)ccc2OC)C(=O)c2cc(-c3ccc(Cl)cc3)nn21 (stereo not drawn) [Compound I-0136]
2,7.00 to 8.00,CCCCCC1CN(Cc2cccc(C(=O)N3CCC(O)CC3)c2)C(=O)c2cc(-c3ccc(Cl)cc3)nn21 (stereo not drawn) [Compound I-0137]
3,6.00 to 7.00,CCCCCC1CN(Cc2ccccc2OCCCN(C)C)C(=O)c2cc(-c3ccc(Cl)cc3)nn21 (stereo not drawn) [Compound I-0138]
4,≤ 6.00,CCCCCC1CN(Cc2ccccc2S(=O)(=O)N2CCOCC2)C(=O)c2cc(-c3ccc(Cl)cc3)nn21 (stereo not drawn) [Compound I-0139]
5,≤ 6.00,CCCCCC1CN(Cc2ccc(OC(C)=O)cc2)C(=O)c2cc(-c3ccc(Cl)cc3)nn21 (stereo not drawn) [Compound I-0140]
6,6.00 to 7.00,CCCCCC1CN(Cc2ccc(S(C)(=O)=O)cc2)C(=O)c2cc(-c3ccc(Cl)cc3)nn21 (stereo not drawn) [Compound I-0141]
7,6.00 to 7.00,CCCCCC1CN(Cc2cccc(NC(C)=O)c2)C(=O)c2cc(-c3ccc(Cl)cc3)nn21 (stereo not drawn) [Compound I-0142]
8,≤ 6.00,CCCCCC1CN(Cc2ccc(CC(=O)OC)cc2)C(=O)c2cc(-c3ccc(Cl)cc3)nn21 (stereo not drawn) [Compound I-0143]
9,≤ 6.00,CCCCCC1CN(Cc2ccccc2CS(=O)(=O)c2ccccc2)C(=O)c2cc(-c3ccc(Cl)cc3)nn21 (stereo not drawn) [Compound I-0144]
10,6.00 to 7.00,CCCCCC1CN(Cc2ccc(CO)cc2)C(=O)c2cc(-c3ccc(Cl)cc3)nn21 (stereo not drawn) [Compound I-0145]
11,≤ 6.00,CCCCCC1CN(Cc2ccc(Oc3ccccc3)cc2)C(=O)c2cc(-c3ccc(Cl)cc3)nn21 (stereo not drawn) [Compound I-0146]
12,6.00 to 7.00,CCCCCC1CN(Cc2ccc(C(N)=O)cc2)C(=O)c2cc(-c3ccc(Cl)cc3)nn21 (stereo not drawn) [Compound I-0147]
13,> 8.00,CCCCCC1CN(Cc2cccc(C(=O)O)c2)C(=O)c2cc(-c3ccc(Cl)cc3)nn21 (stereo not drawn) [Compound I-0148]
14,6.00 to 7.00,O=C(O)c1cccc(CN2C(=O)c3cc(-c4ccc(Cl)cc4)nn3[C@H]3CCC[C@H]32)c1 [Compound I-0149]
15,> 8.00,CCCCC1CN(Cc2cccc(C(=O)O)c2)C(=O)c2cc(-c3ccc(Cl)cc3)nn21 (stereo not drawn) [Compound I-0150]
16,7.00 to 8.00,CCCCC1CN(CNC(C)=O)C(=O)c2cc(-c3ccc(Cl)cc3)nn21 (stereo not drawn) [Compound I-0151]
17,≤ 6.00,C[C@H]1CN(CC(=O)N2CCOCC2)C(=O)c2cc(-c3ccc(Cl)cc3)nn21 [Compound I-0152]
18,≤ 6.00,CCCCNC(=O)CN1C[C@H](C)n2nc(-c3ccc(Cl)cc3)cc2C1=O [Compound I-0153]
19,≤ 6.00,C[C@H]1CN(CC(=O)N2CCCC2)C(=O)c2cc(-c3ccc(Cl)cc3)nn21 [Compound I-0154]
20,≤ 6.00,C[C@H]1CN(CC(=O)N(C)CC(=O)O)C(=O)c2cc(-c3ccc(Cl)cc3)nn21 [Compound I-0155]
21,≤ 6.00,C[C@H]1CN(CC(=O)NCCC(=O)O)C(=O)c2cc(-c3ccc(Cl)cc3)nn21 [Compound I-0156]
22,≤ 6.00,C[C@H]1CN(CC(=O)NCCCC(=O)O)C(=O)c2cc(-c3ccc(Cl)cc3)nn21 [Compound I-0157]
23,6.00 to 7.00,C[C@H]1CN(CC(=O)C2CCCCN2C(=O)O)C(=O)c2cc(-c3ccc(Cl)cc3)nn21 (stereo partly drawn) [Compound I-0158]
24,≤ 6.00,C[C@H]1CN(CC(=O)N2CCCC(C(=O)O)C2)C(=O)c2cc(-c3ccc(Cl)cc3)nn21 (stereo partly drawn) [Compound I-0159]
25,7.00 to 8.00,C[C@H]1CN(CC(=O)NC(Cc2ccccc2)C(=O)O)C(=O)c2cc(-c3ccc(Cl)cc3)nn21 (stereo partly drawn) [Compound I-0160]
26,6.00 to 7.00,CCCC(NC(=O)CN1C[C@H](C)n2nc(-c3ccc(Cl)cc3)cc2C1=O)C(=O)O (stereo partly drawn) [Compound I-0161]
27,≤ 6.00,C[C@H]1CN(CC(=O)NCC(=O)O)C(=O)c2cc(-c3ccc(Cl)cc3)nn21 [Compound I-0162]

row,pIC50,SMILES
1,6.00 to 7.00,C[C@H]1CN(Cc2cccc(CC(=O)O)c2)C(=O)c2cc(-c3ccc(Cl)cc3)nn21 [Compound I-0163]
2,6.00 to 7.00,C[C@H]1CN(Cc2cccc(C#N)c2)C(=O)c2cc(-c3ccc(Cl)cc3)nn21 [Compound I-0164]
3,≤ 6.00,C[C@H]1CN(Cc2ccc(C#N)cc2)C(=O)c2cc(-c3ccc(Cl)cc3)nn21 [Compound I-0165]
4,≤ 6.00,C[C@H]1CN(Cc2cccc(OCCCN(C)C)c2)C(=O)c2cc(-c3ccc(Cl)cc3)nn21 [Compound I-0166]
5,≤ 6.00,C[C@H]1CN(Cc2cccc(C(=O)N3CCC(O)CC3)c2)C(=O)c2cc(-c3ccc(Cl)cc3)nn21 [Compound I-0167]
6,≤ 6.00,C[C@H]1CN(Cc2ccccc2OCCCN(C)C)C(=O)c2cc(-c3ccc(Cl)cc3)nn21 [Compound I-0168]
7,≤ 6.00,C[C@H]1CN(Cc2ccc(C(N)=O)cc2)C(=O)c2cc(-c3ccc(Cl)cc3)nn21 [Compound I-0169]
8,7.00 to 8.00,C[C@H]1CN(Cc2ccc(CC(=O)O)cc2)C(=O)c2cc(-c3ccc(Cl)cc3)nn21 [Compound I-0170]
9,≤ 6.00,C[C@H]1CN(Cc2ccc(O)cc2)C(=O)c2cc(-c3ccc(Cl)cc3)nn21 [Compound I-0171]
10,≤ 6.00,C[C@H]1CN(Cc2ccccc2)C(=O)c2cc(-c3ccc(Cl)cc3)nn21 [Compound I-0172]
11,6.00 to 7.00,O=C(O)c1cccc(CN2CC(COCc3ccccc3)n3nc(-c4ccc(Cl)cc4)cc3C2=O)c1 (stereo not drawn) [Compound I-0173]
12,≤ 6.00,O=C(O)c1cccc(CN2CC(CO)n3nc(-c4ccc(Cl)cc4)cc3C2=O)c1 (stereo not drawn) [Compound I-0174]
13,7.00 to 8.00,CCOCC1CN(Cc2cccc(C(=O)O)c2)C(=O)c2cc(-c3ccc(Cl)cc3)nn21 (stereo not drawn) [Compound I-0175]
14,> 8.00,CCCOCC1CN(Cc2cccc(C(=O)O)c2)C(=O)c2cc(-c3ccc(Cl)cc3)nn21 (stereo not drawn) [Compound I-0176]
15,≤ 6.00,N#Cc1ccc(CN2CC(COCc3ccccc3)n3nc(-c4ccc(Cl)cc4)cc3C2=O)cc1 (stereo not drawn) [Compound I-0177]
16,6.00 to 7.00,CCOCC1CN(Cc2ccc(C#N)cc2)C(=O)c2cc(-c3ccc(Cl)cc3)nn21 (stereo not drawn) [Compound I-0178]
17,6.00 to 7.00,CCCCCC1CN(c2ccc(C(=O)O)cc2)C(=O)c2cc(-c3ccc(Cl)cc3)nn21 (stereo not drawn) [Compound I-0179]
18,≤ 6.00,CCCCCC1CN(Cc2ccc(C#N)cc2)C(=O)c2cc(C(=O)N3CCC(C#N)CC3)nn21 (stereo not drawn) [Compound I-0180]
19,6.00 to 7.00,CCCC1CN(Cc2ccc(C#N)cc2)C(=O)c2cc(-c3ccc(Cl)cc3)nn21 (stereo not drawn) [Compound I-0181]
20,≤ 6.00,CCCC1CN(Cc2ccc(C#N)cc2)C(=O)c2cc(-c3ccc(C(F)(F)F)cc3)nn21 (stereo not drawn) [Compound I-0182]
21,7.00 to 8.00,CCCCC1CN(Cc2ccc(C#N)cc2)C(=O)c2cc(-c3ccc(Cl)cc3)nn21 (stereo not drawn) [Compound I-0183]
22,> 8.00,CCCCCC1CN(Cc2cccc(C(=O)O)n2)C(=O)c2cc(-c3ccc(Cl)cc3)nn21 (stereo not drawn) [Compound I-0184]
23,7.00 to 8.00,CCCCCC1CN(Cc2cncc(C(=O)O)c2)C(=O)c2cc(-c3ccc(Cl)cc3)nn21 (stereo not drawn) [Compound I-0185]
24,6.00 to 7.00,CCCCC1CN(CC(=O)NC2(C#N)CC2)C(=O)c2cc(-c3ccc(Cl)cc3)nn21 (stereo not drawn) [Compound I-0187]
25,7.00 to 8.00,CCCC1CN(Cc2ccc(C#N)cc2)C(=O)c2cc(-c3ccc(Cl)cc3NC(C)=O)nn21 (stereo not drawn) [Compound I-0188]
26,7.00 to 8.00,CCCCC1CN(Cc2ccc(C#N)cc2)C(=O)c2cc(-c3ccc(Cl)cc3NC(C)=O)nn21 (stereo not drawn) [Compound I-0189]

row,SMILES,pIC50
1,N#Cc1ccc(CN2CC(CC(F)(F)C(F)(F)C(F)(F)F)n3nc(-c4ccc(Cl)cc4)cc3C2=O)cc1 (stereo not drawn) [Compound I-0186],≤ 6.00
